Patent publication US11480578B2, “Method for identifying a biomarker indicative of a reduced drug response using a thermal shift assay” (Pelago Bioscience AB, priority 2014, dated 2022)

Tested on: Methionine aminopeptidase-2
Assay: cell resolved thermal shift assay (FACS sorting, heating, Western blot)
Assay type: cell-based, mouse
Settings: TNP-470 final concentration 2 μM for one hour; mixed cells FACS sorted; heated 44 to 52° C.; MetAP-2 Western blot; FIG. 3
Procedure: Human cancer cell line K562 and mouse fibrosarcoma cell line T241 with endogenous expression of GFP, were cultured to short-term passages (3-15) in an incubator chamber. The T241 cells were treated with the MetAP-2 inhibitor TNP-470 (final concentration 2 μM) for one hour in the incubator chamber. Following incubation, the cells were washed by repeated centrifugation to pellet cells and re-dissolve in PBS. After this step, the cells were pooled into a PBS buffer. This mix of cells was then subjected to FACS sorting using a MoFlo XDP from Beckman Coulter. Cells were either sorted by their GFP fluorescence (T241) or by the lack of fluorescence (K562). The sorted cells were then aliquoted in 8 tube PCR strips and subjected to heating to temperatures ranging from 44 to 52° C. with two degree increments. After heating, the cells were snap frozen in N2 (I) and freeze thawed. The resulting cell debris together with precipitated protein was pelleted by centrifugation at 20000*g for 20 minutes. The supernatants, containing various amount of the target protein (MetAP-2) were subjected to standard SDS-Page and Western blot analysis using a specific primary MetAP-2 antibody (Santa Cruz Biotechnology SC-365637) at 1:400 dilution in non-fat dietary milk.

## CO[C@@H]1[C@H](OC(=O)NC(=O)CCl)CC[C@]2(CO2)[C@H]1[C@@]1(C)O[C@@H]1CC=C(C)C [TNP-470]
  stabilisation of the target protein Methionine aminopeptidase-2 (dark band shows presence of heat stabilised protein): stabilisation
